# Assay results published in patent US11739051B2 (ALEXION PHARMA INTERNATIONAL OPERATIONS UNLIMITED COMPANY, priority 2018, dated 2023).
# What was measured:
# WD patients = conditions: once daily dosing in WD patients; cited from earlier work
# [1] = Crystallinity by X-ray powder diffraction (XRPD); type: physicochemical
# Protocol: Crystallinity was analyzed by X-ray powder diffraction (XRPD) using a Cu-anode (45 kV/40 mA), a Kα-1 monochromator and silicon-based position-sensitive 1D detector (Malvern Panalytical, X'Celerator™). The 2-theta range was 2-35° using a scan speed of 0.02°/s and a step size of 0.017°. Slow spinning sample holders were used. […] Each sample was smeared out using a Teflon bar, producing a flat powdered surface on zero background wafers of silicon (Si). The measurements were performed using a programmable incident divergence slit.
# The crystallinity was evaluated using Panalytical HighScore Plus™ software (The HighScore suite; T. Degen, M. Sadki, E. Bron, U. König, G. Nénert; Powder Diffraction, Volume 29, Supplement S2, December 2014, pp S13-S18). This method is based on the following steps: 1) Calculation of the net area of the signals from the crystalline part of the sample. This area is defined as “AREAcryst.” 2) Calculation of the net total area, that is, area from the amorphous “humps” plus the net peak area from step 1. This area is defined as “AREAtotal.” In the calculation of above areas, an automatic correction of the background is made by using data collected for an empty sample holder. 3) The percent crystallinity of the sample is calculated as: (AREAcryst/AREAtotal)*100.
# XRPD crystallinity results for each batch are reported Table 1.
# [2] = Particle size distribution (PSD) by LALLS; type: physicochemical; conditions: for Dx (10)/μm: 10th percentile of particle size, paraffin oil dispersion; for Dx (50)/μm: 50th percentile of particle size; for Dx (90)/μm: 90th percentile of particle size; for >100 μm (%): percentage of particles greater than 100 μm; for <2 μm (%): percentage of particles less than 2 μm
# Text: As used herein, the term “Dx(10)/μm” refers to the 10th percentile of particle size (D10) measured in micrometers (μm). As used herein, the terms “Dx(50)/μm” or “median particle size” refer to the 50th percentile particle size (D50). As used herein, the term “Dx(90)/μm” refers to the 90th percentile of particle size (D90).
# As used herein, the term “<2 μm (%)” refers to the percentage (%) of particles that are less than 2 μm. As used herein, the term “>100 μm (%)” refers to the percentage (%) of particles that are greater than 100 μm. As used herein, the percentage of particles refers to the percentage based on the population, or number, of particles.
# The sample dispersion medium was paraffin oil. […] This was repeated until a stable reading was obtained.
# The PSD measurements were done using the following settings: background measurement time, 20 seconds(s); sample measurement time, 20 s; dispersant refractive index, 1.45; particle refractive index, N/A (Fraunhofer), absorption, N/A (Fraunhofer); stirrer speed, 2500 rpm; analysis model: general purpose.
# [3] = Specific surface area (SSA) by BET; type: physicochemical; conditions: N2 adsorption
# Protocol: As used herein, the ten “SSA (m^2/g)” refers to specific surface area (SSA) measured in square meters (m^2) per gram (g). SSA was measured by BET according to the method described in Example 4.
# Specific Surface Area (SSA) was analyzed by BET on a surface area analyzer (Gemini 2375™ from Micromeritics Instrument Corp.). […] Each sample was filled into a glass tube and “degassed” at 30° C. for 1 h under continuous N2 (g) flow in order to remove all loosely bound molecules on the external surface and from potential channels in the material. Simultaneously, the saturation pressure for the liquid nitrogen used was determined. After weighing the degassed samples, the degassed samples were inserted into the measuring position at −196° C. (boiling point for liquid nitrogen), evacuated and then exposed to a range of partial pressures basically covering the whole range from almost zero to close to 1 under adsorption mode. The lower pressures were used for SSA determination. Higher pressures were used for potential micro pore determination. In order to ascribe the right amount of nitrogen to the substances, the free volume in the tubes was measured with helium gas prior to nitrogen adsorption. The appropriate thickness values for the adsorbed layer (above the point where no absorption took place in micro pores anymore) was determined from a t-plot and subsequently used to correct the calculation by separating the adsorbed nitrogen molecules into either absorbed into potential pore like structures (the “micro pore volume”) or adsorbed onto actual external surface.
# [4] = Stability of crystalline particles after forced degradation at 40° C. and 75% relative humidity (HPLC impurities); type: physicochemical
# Protocol: Stability analysis was performed on crystalline particles after forced degradation at 40° C. and 75% relative humidity over 3 days.
# [5] = Day 3, 40° C. / 75% RH, listed as B-2
# [6] = Day 3, 40° C. / 75% RH, listed as B-3
# [7] = Day 3, 40° C. / 75% RH, listed as B-4
substance,measurement,setting,value
Bis-choline tetrathiomolybdate [BC-TTM],Cu control and improvement of hepatic function,WD patients,demonstrated to provide Cu control and improvement of hepatic function
bis-choline tetrathiomolybdate [Batch B-2],Estimated Crystallinity (%),"[1]; AREAcryst/AREAtotal*100, listed as B-2",93%
same,Dx (10)/μm,[2]; listed as B-2,5.4 μm
same,Dx (50)/μm,[2]; listed as B-2,20.5 μm
same,Dx (90)/μm,[2]; listed as B-2,59.7 μm
same,>100 μm (%),[2]; listed as B-2,0.1%
same,<2 μm (%),[2]; listed as B-2,4.3%
same,SSA (m^2/g),[3]; listed as B-2,0.65 m^2/g
same,Mo2S6O2 dimer (area %),"[4]; Day 1, 40° C. / 75% RH, listed as B-2",0.07 area %
same,Mo2S6O2 dimer (area %),"[4]; Day 2, 40° C. / 75% RH, listed as B-2",0.13 area %
same,Mo2S6O2 dimer (area %),[4]; [5],0.19 area %
same,TM2 (area %),[4]; [5],0.13 area %
same,TM3 (area %),[4]; [5],0.54 area %
same,Total impurities (area %),[4]; [5],0.97 area %
same,TM2 (area %),"[4]; Initial, listed as B-2",0.01 area %
same,TM3 (area %),"[4]; Initial, listed as B-2",0.52 area %
same,Total impurities (area %),"[4]; Initial, listed as B-2",0.56 area %
bis-choline tetrathiomolybdate [Batch B-3],Estimated Crystallinity (%),"[1]; AREAcryst/AREAtotal*100, listed as B-3",95%
same,Dx (10)/μm,[2]; listed as B-3,10.5 μm
same,Dx (50)/μm,[2]; listed as B-3,30.0 μm
same,Dx (90)/μm,[2]; listed as B-3,54.9 μm
same,>100 μm (%),[2]; listed as B-3,0.0%
same,<2 μm (%),[2]; listed as B-3,2.6%
same,SSA (m^2/g),[3]; listed as B-3,0.38 m^2/g
same,Mo2S6O2 dimer (area %),"[4]; Day 1, 40° C. / 75% RH, listed as B-3",<0.05 area %
same,Mo2S6O2 dimer (area %),"[4]; Day 2, 40° C. / 75% RH, listed as B-3",0.07 area %
same,Mo2S6O2 dimer (area %),[4]; [6],0.11 area %
same,TM2 (area %),[4]; [6],0.10 area %
same,TM3 (area %),[4]; [6],0.43 area %
same,Total impurities (area %),[4]; [6],0.68 area %
same,TM2 (area %),"[4]; Initial, listed as B-3",0.01 area %
same,TM3 (area %),"[4]; Initial, listed as B-3",0.42 area %
same,Total impurities (area %),"[4]; Initial, listed as B-3",0.44 area %
bis-choline tetrathiomolybdate [Batch B-4],Estimated Crystallinity (%),"[1]; AREAcryst/AREAtotal*100, listed as B-4",93%
same,Dx (10)/μm,[2]; listed as B-4,3.6 μm
same,Dx (50)/μm,[2]; listed as B-4,12.7 μm
same,Dx (90)/μm,[2]; listed as B-4,47.6 μm
same,>100 μm (%),[2]; listed as B-4,0.0%
same,<2 μm (%),[2]; listed as B-4,6.6%
same,SSA (m^2/g),[3]; listed as B-4,1.16 m^2/g
same,Mo2S6O2 dimer (area %),"[4]; Day 1, 40° C. / 75% RH, listed as B-4",0.06 area %
same,Mo2S6O2 dimer (area %),"[4]; Day 2, 40° C. / 75% RH, listed as B-4",0.23 area %
same,Mo2S6O2 dimer (area %),[4]; [7],0.38 area %
same,TM2 (area %),[4]; [7],0.19 area %
same,TM3 (area %),[4]; [7],0.23 area %
same,Total impurities (area %),[4]; [7],1.01 area %
same,Mo2S6O2 dimer (area %),[4]; Initial,<0.05 area %
same,TM2 (area %),"[4]; Initial, listed as B-4",0.01 area %
same,TM3 (area %),"[4]; Initial, listed as B-4",0.14 area %
same,Total impurities (area %),"[4]; Initial, listed as B-4",0.20 area %
